Laboratory results from PMC4584933, “Establishing the pig as a large animal model for vaccine development against human cancer” (Frontiers in Genetics, 2015).

How the values were obtained:
PBMCs = experiment: In vitro peptide stimulation of porcine PBMCs, IFN-γ release assay (ELISA); type: cell-based, pig; parameters: key to T cell response: “x” indicates that a response was found to this given peptide at least once; conditions: PBMCs of immunized pigs, 2 × 10^5/well, 5 μg/ml peptide, 67.5–70.0 h, IFN-γ ELISA; response = 2-fold increase vs day -2 and at least 25 pg/ml IFN-γ, found at least once; SLA restriction not included
SLA-1*04:01 = experiment: Peptide-MHC class I complex stability, scintillation proximity assay (SPA); parameters: species or system pig; conditions: biotinylated recombinant SLA heavy chain, 125I-β2m, excess unlabeled β2m, read every 40 min, number only if t1/2 ≥ 0.5 h, '-' = not stably binding
Method in brief: (§1)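 Biotinylated recombinant heavy chains captured on streptavidin scintillation plates with 125I-β2m and peptide; signal read every 40 min under dissociating conditions with excess unlabeled β2m. Signal duration gives complex half-life; ≥ 0.5 h counted as stable binder.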

SLA-1*07:02 = experiment: as above; parameters: species or system pig; conditions: biotinylated recombinant SLA heavy chain, 125I-β2m, excess unlabeled β2m, read every 40 min, number only if t1/2 ≥ 0.5 h, '-' = not stably binding
Method in brief: as §1

SLA-2*04:01 = experiment: as above; parameters: species or system pig; conditions: biotinylated recombinant SLA heavy chain, 125I-β2m, excess unlabeled β2m, read every 40 min, number only if t1/2 ≥ 0.5 h, '-' = not stably binding
Method in brief: as §1

SLA-2*05:02 = experiment: as above; parameters: species or system pig; conditions: biotinylated recombinant SLA heavy chain, 125I-β2m, excess unlabeled β2m, read every 40 min, number only if t1/2 ≥ 0.5 h, '-' = not stably binding
Method in brief: as §1

SLA-3*04:01 = experiment: as above; parameters: species or system pig; conditions: biotinylated recombinant SLA heavy chain, 125I-β2m, excess unlabeled β2m, read every 40 min, number only if t1/2 ≥ 0.5 h, '-' = not stably binding
Method in brief: as §1

| Sequence | T cell response (PBMCs) | Binder (t1/2 ≥ 0.5 h): half-life of peptide-SLA-1*04:01 complex (SLA-1*04:01) | Binder (t1/2 ≥ 0.5 h): half-life of peptide-SLA-1*07:02 complex (SLA-1*07:02) | Binder (t1/2 ≥ 0.5 h): half-life of peptide-SLA-2*04:01 complex (SLA-2*04:01) | Binder (t1/2 ≥ 0.5 h): half-life of peptide-SLA-2*05:02 complex (SLA-2*05:02) | Binder (t1/2 ≥ 0.5 h): half-life of peptide-SLA-3*04:01 complex (SLA-3*04:01) |
| --- | --- | --- | --- | --- | --- | --- |
| ALWDTAGQEDY [RhoC1, porcine RhoC-derived 9-11mer peptide] | x | 234 min | 54 min |  |  |  |
| ASAIKVIPTLF [IDO8, porcine IDO-derived 9-11mer peptide] |  | - (t1/2 (hours) is listed for each of the stably binding peptides (t1/2 ≥ 0.5 h)) |  | - (t1/2 (hours) is listed for each of the stably binding peptides (t1/2 ≥ 0.5 h)) |  |  |
| CVQAMVSLRNY [IDO9, porcine IDO-derived 9-11mer peptide] |  | - (t1/2 (hours) is listed for each of the stably binding peptides (t1/2 ≥ 0.5 h)) | 186 min |  |  |  |
| EDYDRLRPLSY [RhoC14, porcine RhoC-derived 9-11mer peptide] |  | - (t1/2 (hours) is listed for each of the stably binding peptides (t1/2 ≥ 0.5 h)) |  | - (t1/2 (hours) is listed for each of the stably binding peptides (t1/2 ≥ 0.5 h)) |  |  |
| EIAAASAIKVI [IDO16, porcine IDO-derived 9-11mer peptide] | x | 48 min |  |  | 750 min |  |
| GSAAQSSIF [IDO33, porcine IDO-derived 9-11mer peptide] |  | - (t1/2 (hours) is listed for each of the stably binding peptides (t1/2 ≥ 0.5 h)) |  | - (t1/2 (hours) is listed for each of the stably binding peptides (t1/2 ≥ 0.5 h)) |  |  |
| KGDALLQETY [IDO48, porcine IDO-derived 9-11mer peptide] | x | 42 min |  | - (t1/2 (hours) is listed for each of the stably binding peptides (t1/2 ≥ 0.5 h)) |  |  |
| KVLPRNIAIPY [IDO63, porcine IDO-derived 9-11mer peptide] | x | - (t1/2 (hours) is listed for each of the stably binding peptides (t1/2 ≥ 0.5 h)) | 42 min |  |  | - (t1/2 (hours) is listed for each of the stably binding peptides (t1/2 ≥ 0.5 h)) |
| LLDITSSLH [IDO67, porcine IDO-derived 9-11mer peptide] | x | 42 min |  |  |  |  |
| MANRISAFGY [RhoC39, porcine RhoC-derived 9-11mer peptide] | x | 42 min | 90 min | 84 min |  |  |
| NMDILFSFP [IDO85, porcine IDO-derived 9-11mer peptide] | x | 48 min |  |  |  |  |
| RDMANRISAF [RhoC42, porcine RhoC-derived 9-11mer peptide] |  | - (t1/2 (hours) is listed for each of the stably binding peptides (t1/2 ≥ 0.5 h)) |  | - (t1/2 (hours) is listed for each of the stably binding peptides (t1/2 ≥ 0.5 h)) |  | - (t1/2 (hours) is listed for each of the stably binding peptides (t1/2 ≥ 0.5 h)) |
| RLAHLVLGY [IDO104, porcine IDO-derived 9-11mer peptide] |  | - (t1/2 (hours) is listed for each of the stably binding peptides (t1/2 ≥ 0.5 h)) | 30 min | - (t1/2 (hours) is listed for each of the stably binding peptides (t1/2 ≥ 0.5 h)) |  |  |
| RTYMPPAHRNF [IDO113, porcine IDO-derived 9-11mer peptide] |  | 60 min |  | - (t1/2 (hours) is listed for each of the stably binding peptides (t1/2 ≥ 0.5 h)) | - (t1/2 (hours) is listed for each of the stably binding peptides (t1/2 ≥ 0.5 h)) | - (t1/2 (hours) is listed for each of the stably binding peptides (t1/2 ≥ 0.5 h)) |
| SAAQSSIFQCF [IDO122, porcine IDO-derived 9-11mer peptide] | x | 1810 min |  | - (t1/2 (hours) is listed for each of the stably binding peptides (t1/2 ≥ 0.5 h)) |  |  |
| SKDQFPEVY [RhoC48, porcine RhoC-derived 9-11mer peptide] |  | - (t1/2 (hours) is listed for each of the stably binding peptides (t1/2 ≥ 0.5 h)) |  | - (t1/2 (hours) is listed for each of the stably binding peptides (t1/2 ≥ 0.5 h)) |  |  |
| SLENIPEKW [RhoC49, porcine RhoC-derived 9-11mer peptide] |  | - (t1/2 (hours) is listed for each of the stably binding peptides (t1/2 ≥ 0.5 h)) |  | - (t1/2 (hours) is listed for each of the stably binding peptides (t1/2 ≥ 0.5 h)) |  |  |
| SLESGPSVREF [IDO116, porcine IDO-derived 9-11mer peptide] | x | 48 min |  |  |  |  |
| SLHKALEVF [IDO117, porcine IDO-derived 9-11mer peptide] |  | - (t1/2 (hours) is listed for each of the stably binding peptides (t1/2 ≥ 0.5 h)) | - (t1/2 (hours) is listed for each of the stably binding peptides (t1/2 ≥ 0.5 h)) |  |  |  |
| TSSLHKALEVF [IDO123, porcine IDO-derived 9-11mer peptide] |  | - (t1/2 (hours) is listed for each of the stably binding peptides (t1/2 ≥ 0.5 h)) |  | - (t1/2 (hours) is listed for each of the stably binding peptides (t1/2 ≥ 0.5 h)) |  |  |
| VLGYITMAY [IDO125, porcine IDO-derived 9-11mer peptide] |  | - (t1/2 (hours) is listed for each of the stably binding peptides (t1/2 ≥ 0.5 h)) | 60 min | 48 min |  |  |
| VLPRNIAIPY [IDO126, porcine IDO-derived 9-11mer peptide] | x | - (t1/2 (hours) is listed for each of the stably binding peptides (t1/2 ≥ 0.5 h)) | 42 min |  |  |  |
| VQAMVSLRNY [IDO129, porcine IDO-derived 9-11mer peptide] | x | 72 min |  | - (t1/2 (hours) is listed for each of the stably binding peptides (t1/2 ≥ 0.5 h)) |  |  |
| YADCVLANW [IDO133, porcine IDO-derived 9-11mer peptide] | x | 324 min |  | 102 min |  |  |
| YPDTDVILMCF [RhoC59, porcine RhoC-derived 9-11mer peptide] |  | 60 min | 48 min |  |  |  |
